In PubChem BioAssay (NCI):
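Interpolation was linear, between the two tested concentrations surrounding the appropriate level; five concentrations were tested over 48 hours in 96-well plates. GI50 marks 50% less growth. At the TGI there is no net growth.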

Key:
Assay in all cases: NCI-60 cell line screen, 48 h
DLD-1 colon = test system: DLD-1 colon
DMS 114 small cell lung = test system: DMS 114 small cell lung
HCT-116 colon = test system: HCT-116 colon
KM20L2 colon = test system: KM20L2 colon
LXFL 529 NSCLC = test system: LXFL 529 NSCLC
M19-MEL melanoma = test system: M19-MEL melanoma
OVCAR-4 ovarian = test system: OVCAR-4 ovarian
OVCAR-5 ovarian = test system: OVCAR-5 ovarian
RPMI-8226 leukemia = test system: RPMI-8226 leukemia
SF-295 CNS = test system: SF-295 CNS
SNB-78 CNS = test system: SNB-78 CNS
DMS 273 small cell lung = test system: DMS 273 small cell lung
HOP-18 NSCLC = test system: HOP-18 NSCLC
RXF-631 renal = test system: RXF-631 renal
XF 498 CNS = test system: XF 498 CNS

With `CCC(=O)N(O)C(C)(C)C` the TGI (DLD-1 colon) was > 100 µM, the TGI (DMS 114 small cell lung) was > 100 µM and the TGI (HCT-116 colon) was > 100 µM. For the same compound, the TGI (KM20L2 colon) was > 100 µM, the TGI (LXFL 529 NSCLC) was > 100 µM and the TGI (M19-MEL melanoma) was > 100 µM. For the same compound, the TGI (OVCAR-4 ovarian) was > 100 µM, the TGI (OVCAR-5 ovarian) was > 100 µM and the TGI (RPMI-8226 leukemia) was > 100 µM. The TGI (SF-295 CNS) was > 100 µM and the TGI (SNB-78 CNS) was > 100 µM.
With `c1ccc(C2OCCO2)c(OCCOc2cc(OCCOc3ccccc3C3OCCO3)c(OCCOc3ccccc3C3OCCO3)cc2OCCOc2ccccc2C2OCCO2)c1` the TGI (DLD-1 colon) was > 100 µM, the TGI (DMS 114 small cell lung) was 29.9 µM and the TGI (DMS 273 small cell lung) was 50.9 µM. For the same compound, the TGI (HCT-116 colon) was 44.2 µM, the TGI (HOP-18 NSCLC) was > 100 µM and the TGI (KM20L2 colon) was > 100 µM. The TGI (LXFL 529 NSCLC) was > 100 µM, the TGI (M19-MEL melanoma) was > 100 µM and the TGI (OVCAR-4 ovarian) was 30.2 µM. For the same compound, the TGI (OVCAR-5 ovarian) was > 100 µM, the TGI (RPMI-8226 leukemia) was > 100 µM and the TGI (SF-295 CNS) was > 100 µM. The TGI (SNB-78 CNS) was 28 µM.
With `CC(C)C1COC(c2cccc(C3=N[C@@H](C(C)C)CO3)n2)=N1` (some centres not stated) the TGI (DLD-1 colon) was > 100 µM, the TGI (DMS 114 small cell lung) was > 100 µM and the TGI (DMS 273 small cell lung) was > 100 µM. For the same compound, the TGI (HCT-116 colon) was > 100 µM, the TGI (KM20L2 colon) was > 100 µM and the TGI (LXFL 529 NSCLC) was > 100 µM. For the same compound, the TGI (M19-MEL melanoma) was > 100 µM, the TGI (OVCAR-4 ovarian) was > 100 µM and the TGI (OVCAR-5 ovarian) was > 100 µM. The TGI (RPMI-8226 leukemia) was > 100 µM, the TGI (RXF-631 renal) was > 100 µM and the TGI (SF-295 CNS) was > 100 µM. The TGI (SNB-78 CNS) was > 100 µM and the TGI (XF 498 CNS) was > 100 µM.
In the case of `CCSc1nc(=[N+]2CCCC2)ss1`, the TGI (DLD-1 colon) is reported as > 100 µM, the TGI (DMS 114 small cell lung) is reported as 55.5 µM and the TGI (DMS 273 small cell lung) is reported as > 100 µM. For the same compound, the TGI (HCT-116 colon) was > 86.9 µM, the TGI (HOP-18 NSCLC) was > 100 µM and the TGI (KM20L2 colon) was > 100 µM. For the same compound, the TGI (LXFL 529 NSCLC) was > 100 µM, the TGI (M19-MEL melanoma) was 27.3 µM and the TGI (OVCAR-4 ovarian) was > 100 µM. The TGI (OVCAR-5 ovarian) was > 100 µM, the TGI (RPMI-8226 leukemia) was 22.8 µM and the TGI (SF-295 CNS) was > 100 µM. The TGI (SNB-78 CNS) was > 100 µM and the TGI (XF 498 CNS) was > 77.9 µM.
In the case of `Cc1ccc2c(C)c3ccc4ccccc4c3c[n+]2c1`, the TGI (DLD-1 colon) is reported as > 100 µM, the TGI (DMS 114 small cell lung) is reported as 31 µM and the TGI (DMS 273 small cell lung) is reported as 32.7 µM. The TGI (HCT-116 colon) was > 89.7 µM, the TGI (HOP-18 NSCLC) was 43.2 µM and the TGI (KM20L2 colon) was > 100 µM. The TGI (LXFL 529 NSCLC) was 30.4 µM, the TGI (M19-MEL melanoma) was 17.3 µM and the TGI (OVCAR-4 ovarian) was 45.4 µM. The TGI (OVCAR-5 ovarian) was > 100 µM, the TGI (RPMI-8226 leukemia) was 64.8 µM and the TGI (SF-295 CNS) was > 81.1 µM. The TGI (SNB-78 CNS) was > 100 µM.
For `C=C=C(Sc1ccccc1)C(C)(C)OC(C)=O`, the TGI (DLD-1 colon) was 31.5 µM, the TGI (HCT-116 colon) was 27.7 µM and the TGI (HOP-18 NSCLC) was 38.5 µM. It also gave a TGI (KM20L2 colon) of 58.7 µM, a TGI (LXFL 529 NSCLC) of 38.3 µM and a TGI (M19-MEL melanoma) of 30.6 µM. The TGI (OVCAR-4 ovarian) was > 100 µM, the TGI (OVCAR-5 ovarian) was 45.2 µM and the TGI (RPMI-8226 leukemia) was > 100 µM. It also gave a TGI (SF-295 CNS) of 33.6 µM and a TGI (SNB-78 CNS) of 91.4 µM.
With `C/C(CC1SCCCS1)=C(/C)CC1SCCCS1` the TGI (HCT-116 colon) was > 100 µM, the TGI (OVCAR-4 ovarian) was > 100 µM and the TGI (OVCAR-5 ovarian) was > 100 µM. For the same compound, the TGI (RPMI-8226 leukemia) was > 100 µM and the TGI (SF-295 CNS) was > 100 µM.
In the case of `CCOc1cc2c(cc1OC(C)=O)C(=O)CC[C@H]1C3CC[C@H](OC(C)=O)[C@@]3(C)CC[C@H]21` (some centres not stated), the TGI (HCT-116 colon) is reported as > 100 µM, the TGI (OVCAR-4 ovarian) is reported as > 100 µM and the TGI (OVCAR-5 ovarian) is reported as > 100 µM. The TGI (RPMI-8226 leukemia) was > 100 µM and the TGI (SF-295 CNS) was > 100 µM.
For `CC(C)CC(NC(=O)C(CCI)Cc1ccccc1)C(=O)Nc1ccccc1` (configuration not stated), the TGI (HCT-116 colon) was > 100 µM, the TGI (OVCAR-4 ovarian) was > 100 µM and the TGI (OVCAR-5 ovarian) was > 100 µM. The TGI (RPMI-8226 leukemia) was > 100 µM and the TGI (SF-295 CNS) was > 100 µM.
`Clc1nc(NCCc2ccccc2)c2ncn(-c3ccccc3)c2n1` was tested, and the TGI (HCT-116 colon) was 56.4 µM, the TGI (OVCAR-4 ovarian) was 42.1 µM and the TGI (OVCAR-5 ovarian) was > 100 µM. The TGI (RPMI-8226 leukemia) was 47.3 µM and the TGI (SF-295 CNS) was > 100 µM.
`O=C1C(=C(I)I)c2ccccc2-c2ccccc21` was tested, and the TGI (HCT-116 colon) was 6.55 µM, the TGI (OVCAR-4 ovarian) was 10.9 µM and the TGI (OVCAR-5 ovarian) was 17.1 µM. It also gave a TGI (RPMI-8226 leukemia) of 3.95 µM and a TGI (SF-295 CNS) of 31.8 µM.
With `CCOc1ccc(NCC2CC/C(=C\c3ccc(O)cc3)C2=O)cc1` (configuration not stated) the TGI (HCT-116 colon) was 23.6 µM, the TGI (OVCAR-4 ovarian) was 31.5 µM and the TGI (OVCAR-5 ovarian) was 29 µM. For the same compound, the TGI (RPMI-8226 leukemia) was > 25.3 µM and the TGI (SF-295 CNS) was > 54.6 µM.
For `Cn1cnc(N2CCCC2)c(C#N)c1=O`, the TGI (HCT-116 colon) was > 100 µM, the TGI (OVCAR-4 ovarian) was > 100 µM and the TGI (OVCAR-5 ovarian) was > 100 µM. For the same compound, the TGI (RPMI-8226 leukemia) was > 100 µM and the TGI (SF-295 CNS) was > 100 µM.
For `CCOc1cc2c(cc1O)/C(=N/NS(=O)(=O)c1ccc(C)cc1)C[C@@H]1[C@@H]2CC[C@]2(C)[C@@H](O)CC[C@@H]12`, the GI50 (HCT-116 colon) was 6.67 µM, the TGI (HCT-116 colon) was > 100 µM and the TGI (OVCAR-4 ovarian) was > 100 µM. The TGI (OVCAR-5 ovarian) was 46.4 µM, the TGI (RPMI-8226 leukemia) was 16 µM and the TGI (SF-295 CNS) was > 100 µM.
